Measured values as given in the NIST ThermoML archive (doi:10.1021/je900609f).
± gives the expanded uncertainty stated by the source.

Conditions: Crystal; visual observation

C=CC(=O)Nc1cc(F)c(Br)c(F)c1 [N-(4-bromo-3,5-difluorophenyl)acrylamide]
Normal melting temperature: 182 ± 0.7 °C
